Data set [1] has as its system DU-145. Briefly: MTS cell viability assay, 48 h. It counts as cell-based, human. Conditions: Homo sapiens; DU-145, 48 h, MTS; read-out: CC50. As for the experimental part: (§1) The cells were incubated with increasing concentrations of the compounds (0–30 µM) for 48 h followed by assessment of cell viability using the MTS assay. […] This compound carries a primary amino group at the sn-3 position of the glycerolipid and L-rhamno sugar at the sn-2 position via an α-rhamnosidic linkage.
(§2) The cell lines were cultured from frozen stocks originally obtained from ATCC (Manassas, VA, USA). MDA-MB-231, JIMT-1, DU145, MDA-MB-468, Hs578t and MDA-MB-453 were grown in DMEM medium supplemented with 10% FBS. BT-474 cells were grown in DMEM/F12 medium supplemented with 10% FBS. MiaPaCa2 was cultured in DMEM supplemented with 10% FBS and 2.5% horse serum. All the media contained penicillin/streptomycin. U-251 and U-87 in Eagle MEM supplemented by 10% FBS, 1% Non-essential amino acids, 1 mM sodium pyruvate and 2 mM glutamine. BT-549 was cultured in RPMI 1640 medium supplemented with 10% FBS.
(§3) The effects of the GAELs on the viability of the epithelial cancer cell lines were determined as previously described. Briefly, equal numbers of the cells were dispersed into 96-well plates. After 24 h, the cells were incubated with the compounds (0–30 µM) for 48 h. MTS reagent [3-(4,5-dimethylthiazol-2-yl)-5-(3-carboxymethoxyphenyl)-2-(4-sulfophenyl)-2H-tetrazolium, inner salt; Promega, Madison, WI, USA] (20% v/v) was subsequently added and the plates were incubated for 1–4 h in a CO2 incubator followed by measurement of the medium at OD490 with a plate reader (Molecular Devices).
On the technique in general: Tetrazolium dyes change colour on reduction, which living cells bring about.

Data set [2] deals with MiaPaCa2. Kind of data set: MTS cell viability assay, 48 h. The conditions noted are these: Homo sapiens, MIA PaCa-2; MiaPaCa2, 48 h, MTS; read-out: CC50. It counts as cell-based, human. The protocol:
as §1, §2, §3

For data set [3], the system named is BT474 (hormone receptor positive breast cancer cells). Briefly: MTS cell viability assay, 48 h. It counts as cell-based. Conditions: Homo sapiens, BT-474. The protocol:
Concentrations of compound 3 between 6–15 µM were sufficient to kill all the triple negative cell lines with the exception of MDA-MB-453 where viability was inhibited by 60% at the highest concentration tested. 30 µM of 3 was required for complete loss of viability of the hormone sensitive breast cancer BT474 cell line.
as §2
The effects of the GAELs on the viability of the epithelial cancer cell lines were determined as previously described. Briefly, equal numbers of the cells were dispersed into 96-well plates. After 24 h, the cells were incubated with the compounds (0–30 µM) for 48 h. […] (20% v/v) was subsequently added and the plates were incubated for 1–4 h in a CO2 incubator followed by measurement of the medium at OD490 with a plate reader (Molecular Devices). […]

Data set [4] deals with PC-3. Kind of data set: MTS cell viability assay, 48 h. The class given is cell-based, human. Conditions: Homo sapiens; PC-3, 48 h, MTS; read-out: CC50. The protocol:
as §1
as §3, with “Devices). Wells with media but no cells were treated in similar fashion and the values utilized as blank.” for “Devices).”

Data set [5] deals with JIMT-1. Briefly: Cell membrane integrity, ethidium homodimer-1 (EthD-1) staining. The class given is cell-based. Conditions: JIMT-1, 15 µM, 4–6 h. The protocol: (§4) After determining that the mechanism of cell death of compound 3 is independent of caspases-mediated apoptosis, we evaluated if cell death was due to membrane disruption or lysis using the cell impermeant ethidium homodimer-1 (EthD-1) dye that emits red fluorescence upon binding to DNA [13, 14]. DU-145 and JIMT-1 were treated with compound 3 at 10 and 15 µM, respectively. After 4–6 h, the cells were treated with EthD-1 dye and monitored under fluorescence microscopy.
(§5) Equal numbers of JIMT-1 and DU145 cells were dispersed into 96-well plates. After 24 h the cells were incubated with varying concentration of compounds 3 or 4 (4–6 µM) for 5–6 h. Subsequently, 2 µM of the cell membrane impermeant dye, ethidium homodimer-1 (EthD-1 (Molecular Probes, Eugene, OR, USA) that emits red fluorescence upon binding to DNA was added and the cells analysed by fluorescence microscopy. EthD-1 staining was compared to negative controls with no treatment and positive control treated with 0.01% Triton X-100 for 10 min.
(§6) Figure 5 Evaluation of effect of compound 3 on cell membrane of DU-145 and JIMT-1 cell lines using cell impermeant ethidium homodimer-1 (EthD-1) dye that emits red fluorescence upon binding to DNA.

The test system of data set [6] is DU-145. The description is as above. The class given is cell-based. Conditions: DU-145, 10 µM, 4–6 h. As for the experimental part:
as §4, §5, §6

Each structure is given as a SMILES string.

For orientation: CC50 means the concentration giving 50% cytotoxicity. With `CCCCCCCCCCCCCCCCOCC(CN)OC1OC(C)C(O)C(O)C1O` [Compound 3, 3-Amino-1-O-hexadecyloxy-2R-(O–α-L-rhamnopyranosyl)-sn-glycerol], the CC50 in data set [1] is 8.2 µM; in data set [2] it was 8.5 µM; in data set [3], 14 µM; in data set [4] it was 11 µM. For the same compound, the “Cell membrane lysis (EthD-1 staining)” value in data set [5] and in data set [6] was “no significant cell membrane lysis” throughout.

The record behind these values is PMC7037447, “Syntheses of L-Rhamnose-Linked Amino Glycerolipids and Their Cytotoxic Activities against Human Cancer Cells” (Molecules, 2020).
